We go through five cell lines from the supplement of paper PMC10307832.

Common to all, as to assay: relative viability (nuclei count vs DMSO), 5 days (fraction); higher = more cells survive
Compound in the test “Tosedostat + Bortezomib”: CC(C)C[C@@H](C(=O)N[C@H](C(=O)OC1CCCC1)c1ccccc1)[C@H](O)C(=O)NO [Tosedostat] + CC(C)C[C@H](NC(=O)[C@H](Cc1ccccc1)NC(=O)c1cnccn1)B(O)O [Bortezomib] (partner 0.002 µM)
Put shortly:
(§1)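 Cells from lung cancer lines were seeded into 1536-well plates and, one day later, dosed by pin tool. Treatments were either a single drug or a fixed dose of an anchor drug with five library-drug doses (not always all listed) in √10 steps. After 5 days, nuclei were stained in a one-step fixation (final 0.05% Triton X-100, 1% formaldehyde, 1 ug/ml Hoechst) and counted on 4× images, and relative viability is the treated-to-vehicle nuclei ratio, as the median of duplicate plates.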

Compound in test [1]: CC1=NN=C(O1)C2=NN=C(C=C2)N3CCC(CC3)OC4=C(C=CC(=C4)F)Cl + Cc1nc(Nc2ncc(C(=O)Nc3c(C)cccc3Cl)s2)cc(N2CCN(CCO)CC2)n1 [Dasatinib] (partner 0.075 µM)
Put shortly:
as §1

Compound in the test “Tosedostat + Olaparib”: CC(C)C[C@@H](C(=O)N[C@H](C(=O)OC1CCCC1)c1ccccc1)[C@H](O)C(=O)NO [Tosedostat] + O=C(c1cc(Cc2n[nH]c(=O)c3ccccc23)ccc1F)N1CCN(C(=O)C2CC2)CC1 [Olaparib] (partner 8 µM)
In outline: as §1

Compound in the test “Tosedostat + Pictilisib”: CC(C)C[C@@H](C(=O)N[C@H](C(=O)OC1CCCC1)c1ccccc1)[C@H](O)C(=O)NO [Tosedostat] + CS(=O)(=O)N1CCN(Cc2cc3nc(-c4cccc5[nH]ncc45)nc(N4CCOCC4)c3s2)CC1 [Pictilisib] (partner 1 µM)
In outline:
as §1

HCC-78: the relative viability with Tosedostat + Bortezomib (first compound 0.02 µM) was found to be 0.496; with Tosedostat + Bortezomib (first compound 0.06325 µM) it was 0.497; in the test with Tosedostat + Bortezomib (first compound 0.2 µM) it was 0.473; with Tosedostat + Bortezomib (first compound 0.6325 µM) it was 0.555; with Tosedostat + Bortezomib (first compound 2 µM), 0.563; in test [1] (first compound 0.253 µM) it was 0.413. Also, the relative viability was 0.302 in test [1] (first compound 0.8 µM); 0.341 in test [1] (first compound 2.53 µM); 0.244 in test [1] (first compound 8 µM); 0.683 in the test with Tosedostat + Olaparib (first compound 0.02 µM); 0.796 in the test with Tosedostat + Olaparib (first compound 0.06325 µM); 0.766 with Tosedostat + Olaparib (first compound 0.2 µM). Further, the relative viability with Tosedostat + Olaparib (first compound 0.6325 µM) amounted to 0.754; with Tosedostat + Olaparib (first compound 2 µM), 0.75; with Tosedostat + Pictilisib (first compound 0.02 µM), 0.202; in the test with Tosedostat + Pictilisib (first compound 0.06325 µM) it was 0.226; in the test with Tosedostat + Pictilisib (first compound 0.2 µM) it was 0.212; with Tosedostat + Pictilisib (first compound 0.6325 µM), 0.221. Moreover, the relative viability with Tosedostat + Pictilisib (first compound 2 µM) came to 0.197.

Turning to HCC-366, the relative viability with Tosedostat + Bortezomib (first compound 0.02 µM) amounted to 1.05; with Tosedostat + Bortezomib (first compound 0.06325 µM), 1.03; with Tosedostat + Bortezomib (first compound 0.2 µM), 1.03; with Tosedostat + Bortezomib (first compound 0.6325 µM) it was 1.07; in the test with Tosedostat + Bortezomib (first compound 2 µM), 1.04; in test [1] (first compound 0.253 µM) it was 0.292. Moreover, the relative viability was 0.375 in test [1] (first compound 0.8 µM); 0.471 in test [1] (first compound 2.53 µM); 0.361 in test [1] (first compound 8 µM); 0.361 in the test with Tosedostat + Olaparib (first compound 0.02 µM); 0.334 in the test with Tosedostat + Olaparib (first compound 0.06325 µM); 0.385 in the test with Tosedostat + Olaparib (first compound 0.2 µM). For the same cell line, the relative viability with Tosedostat + Olaparib (first compound 0.6325 µM) was 0.32; in the test with Tosedostat + Olaparib (first compound 2 µM), 0.33; with Tosedostat + Pictilisib (first compound 0.02 µM), 0.167; with Tosedostat + Pictilisib (first compound 0.06325 µM), 0.154; with Tosedostat + Pictilisib (first compound 0.2 µM), 0.0818; with Tosedostat + Pictilisib (first compound 0.6325 µM), 0.151. Besides, in the test with Tosedostat + Pictilisib (first compound 2 µM), the relative viability was 0.103.

As to HCC-827, the relative viability with Tosedostat + Bortezomib (first compound 0.02 µM) came out at 1.1; with Tosedostat + Bortezomib (first compound 0.06325 µM) it was 1.04; with Tosedostat + Bortezomib (first compound 0.2 µM), 1.07; with Tosedostat + Bortezomib (first compound 0.6325 µM), 1; with Tosedostat + Bortezomib (first compound 2 µM), 1.01; in test [1] (first compound 0.253 µM), 0.374. The relative viability in test [1] (first compound 0.8 µM) was found to be 0.235; in test [1] (first compound 2.53 µM), 0.357; in test [1] (first compound 8 µM), 0.256; with Tosedostat + Olaparib (first compound 0.02 µM) it was 0.543; with Tosedostat + Olaparib (first compound 0.06325 µM) it was 0.526; with Tosedostat + Olaparib (first compound 0.2 µM) it was 0.602. The relative viability amounted to 0.317 with Tosedostat + Olaparib (first compound 0.6325 µM); 0.506 with Tosedostat + Olaparib (first compound 2 µM); 1.02 in the test with Tosedostat + Pictilisib (first compound 0.02 µM); 0.991 in the test with Tosedostat + Pictilisib (first compound 0.06325 µM); 1.3 with Tosedostat + Pictilisib (first compound 0.2 µM); 0.885 in the test with Tosedostat + Pictilisib (first compound 0.6325 µM). For the same cell line, the relative viability in the test with Tosedostat + Pictilisib (first compound 2 µM) worked out at 1.09.

In the case of HOP-62, the relative viability was 0.719 with Tosedostat + Bortezomib (first compound 0.02 µM); 0.931 in the test with Tosedostat + Bortezomib (first compound 0.06325 µM); 0.805 with Tosedostat + Bortezomib (first compound 0.2 µM); 0.526 with Tosedostat + Bortezomib (first compound 0.6325 µM); 0.498 with Tosedostat + Bortezomib (first compound 2 µM); 0.571 in test [1] (first compound 0.253 µM). The relative viability in test [1] (first compound 0.8 µM) was 0.633; in test [1] (first compound 2.53 µM), 0.606; in test [1] (first compound 8 µM) it was 0.6; in the test with Tosedostat + Olaparib (first compound 0.02 µM), 0.638; in the test with Tosedostat + Olaparib (first compound 0.06325 µM), 0.346; in the test with Tosedostat + Olaparib (first compound 0.2 µM) it was 0.321. Also, the relative viability in the test with Tosedostat + Olaparib (first compound 0.6325 µM) turned out to be 0.245; in the test with Tosedostat + Olaparib (first compound 2 µM), 0.363; in the test with Tosedostat + Pictilisib (first compound 0.02 µM), 0.94; with Tosedostat + Pictilisib (first compound 0.06325 µM) it was 0.676; in the test with Tosedostat + Pictilisib (first compound 0.2 µM), 0.717; with Tosedostat + Pictilisib (first compound 0.6325 µM) it was 0.487. Also, the relative viability with Tosedostat + Pictilisib (first compound 2 µM) is 0.867.

Take LC-2-ad: the relative viability in the test with Tosedostat + Bortezomib (first compound 0.02 µM) was found to be 1.15; with Tosedostat + Bortezomib (first compound 0.06325 µM), 0.971; in the test with Tosedostat + Bortezomib (first compound 0.2 µM), 1.01; with Tosedostat + Bortezomib (first compound 0.6325 µM), 0.906; with Tosedostat + Bortezomib (first compound 2 µM), 0.791; in test [1] (first compound 0.253 µM) it was 0.4. Moreover, the relative viability in test [1] (first compound 0.8 µM) amounted to 0.389; in test [1] (first compound 2.53 µM) it was 0.48; in test [1] (first compound 8 µM), 0.505; with Tosedostat + Olaparib (first compound 0.02 µM) it was 0.774; with Tosedostat + Olaparib (first compound 0.06325 µM), 0.707; with Tosedostat + Olaparib (first compound 0.2 µM) it was 0.714. The relative viability with Tosedostat + Olaparib (first compound 0.6325 µM) is 0.638; with Tosedostat + Olaparib (first compound 2 µM) it was 0.695; with Tosedostat + Pictilisib (first compound 0.02 µM), 0.269; with Tosedostat + Pictilisib (first compound 0.06325 µM), 0.429; with Tosedostat + Pictilisib (first compound 0.2 µM), 0.661; with Tosedostat + Pictilisib (first compound 0.6325 µM) it was 0.458. Also, the relative viability in the test with Tosedostat + Pictilisib (first compound 2 µM) was found to be 0.455.
